What is called IC50 is the concentration at which inhibition is half-maximal. The low end stands for inhibition by little substance, the high end for a need for much substance.

The text below walks through data of patent publication US4569907A, “Thiopeptolide substrates for vertebrate collagenase” (Monsanto Company, priority 1984, dated 1986).

Non-standard residues stand in square brackets, D forms with d. Residues, ends and D or L forms follow the SMILES beside them. *: point of attachment. Dnp = O=[N+]([O-])c1ccc(*)c([N+](=O)[O-])c1

Type in all cases: biochemical
For one assay, the target named is T1, collagenase (Homo sapiens, UniProt P03956).
T1 construct: endogenous in cells; host or cells: normal human skin fibroblasts (culture media)
T1 sequence (P03956 100-469): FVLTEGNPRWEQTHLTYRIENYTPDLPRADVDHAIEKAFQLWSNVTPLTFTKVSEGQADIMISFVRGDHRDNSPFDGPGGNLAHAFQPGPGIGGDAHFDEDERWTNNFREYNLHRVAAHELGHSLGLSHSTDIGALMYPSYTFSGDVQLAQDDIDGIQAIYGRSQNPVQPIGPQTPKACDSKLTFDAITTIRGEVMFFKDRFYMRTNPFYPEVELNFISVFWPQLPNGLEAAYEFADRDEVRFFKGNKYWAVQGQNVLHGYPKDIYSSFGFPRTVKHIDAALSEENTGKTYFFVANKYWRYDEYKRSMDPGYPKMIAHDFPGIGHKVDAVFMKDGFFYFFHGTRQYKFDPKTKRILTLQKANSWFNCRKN
In words: HPLC assay of substrate hydrolysis by collagenase (comparison substrates without chromophores). As to conditions: Table I Comparison of Substrate; assayed by HPLC. On the procedure: (§1) The following Table I sets forth the relative rates of hydrolysis in the above spectrophotometric assay using ther above thiopeptolides as substrates in comparison to the rates of hydrolysis assayed by High Performance Liquid Chromatography (HPLC) of two commercially available substrates for collagenase and two other substrates described in copending application Ser. No. 450,318, cited hereinbefore.

Assay [1] has as its target T2, Collagenase from culture media of normal human skin fibroblasts (Homo sapiens, UniProt P03956).
T2 construct: endogenous in cells; host or cells: normal human skin fibroblasts (culture media)
T2 sequence (P03956 100-469): T1 sequence (P03956 100-469)
In words: Spectrophotometric assay for collagenase: hydrolysis of thiopeptolide substrates with 4,4'-dithiodipyridine or Ellman's reagent. The settings on record: for Relative Rate (of hydrolysis): Table I Comparison of Substrate, spectrophotometric assay, pH 6.5-7.0, initial rates. On the procedure: Collagenase was prepared from culture media of normal human skin fibroblasts substantially according to the procedure of Stricklin et al., Biochem. 16 1607 (1977). The enzyme (23 μg/ml in 0.5 M tris buffer [tris(hydroxymethyl) amino methane], 0.01 M CaCl2, pH 7.5) was activated by incubating 10 μl samples with one μl of trypsin (10 mg/ml in 1 mM HCl) for twenty minutes at room temperature followed by addition of 20 μl of soybean trypsin inhibitor (5 mg/ml in 0.05 M tris buffer, 0.01 M CaCl2, pH 7.5).
The activated enzyme was diluted 100 to 2000 fold for use with each of the following substrate thiopeptolides:
(§2) The spectrophotometric assay was carried out at substrate concentrations of from 0.01 mM to 5 mM in 0.05 M HEPES buffer (N-2-hydroxyethylpiperizine-N'-2-ethanesulfonic acid) with 0.01 M CaCl2 at a pH of 6.5-7.0 and containing 0.5 mM to 1.0 mM 4,4'-dithiodipyridine (or Ellman's Reagent). The total reaction volume was 250 μl including 10 to 100 μl of the diluted activated enzyme. The reaction solutions were placed in 10 mm pathlength, self-masking microcuvettes and the hydrolysis followed using a Gilford model 250 spectrophotometer at 324 λ(410 λ for Ellman's Reagent) and equipped with a Gilford model 6051 recorder. The initial rates were limited to the first 5% of reaction and were corrected for non-enzymatic hydrolysis, which never exceeded 25% of the total reaction at pH 6.5-7.0. The 4,4'dithiodipyridine (or Ellman's Reagent) at 0.5 mM was in large excess under the initial rate assay conditions and was not rate limiting.
as §1

A further assay addresses T3, Carboxypeptidase Y (Saccharomyces cerevisiae, UniProt P00729).
T3 sequence (P00729 112-532): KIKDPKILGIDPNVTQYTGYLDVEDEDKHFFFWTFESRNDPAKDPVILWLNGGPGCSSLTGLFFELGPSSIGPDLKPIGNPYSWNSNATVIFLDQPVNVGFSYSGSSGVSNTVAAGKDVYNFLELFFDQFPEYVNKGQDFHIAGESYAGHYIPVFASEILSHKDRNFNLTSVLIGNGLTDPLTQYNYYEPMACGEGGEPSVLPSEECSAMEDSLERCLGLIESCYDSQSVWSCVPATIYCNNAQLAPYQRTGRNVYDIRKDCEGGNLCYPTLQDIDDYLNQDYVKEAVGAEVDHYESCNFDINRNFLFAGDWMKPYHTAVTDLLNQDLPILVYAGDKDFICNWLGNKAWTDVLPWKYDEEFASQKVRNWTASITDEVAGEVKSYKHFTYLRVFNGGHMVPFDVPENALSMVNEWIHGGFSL
In words: Enzyme selectivity for thiopeptolide, spectrophotometric hydrolysis. The settings on record: Table II Enzyme Selectivity. On the procedure: as §2
(§3) The ability of five proteolytic enzymes other than collagenase to cleave the synthetic substrate Ac-Pro-Leu-Gly-S-Leu-Leu-Gly-OC2 H5 was tested by hydrolysis and following spectrophotometrically as in Example 14. The following Table II sets forth the relative selectivity of these enzymes in comparison to vertebrate collagenase.

A further assay concerns Elastase. The assay is described as above. As to conditions: Table II Enzyme Selectivity. On the procedure: as §2, §3
For another assay, the system named is Kallikrein. Described as above. The settings on record: Table II Enzyme Selectivity. On the procedure:
as §2, §3

The target in the next assay is T4, Trypsin (Bos taurus, UniProt P00760).
T4 sequence (P00760 24-246): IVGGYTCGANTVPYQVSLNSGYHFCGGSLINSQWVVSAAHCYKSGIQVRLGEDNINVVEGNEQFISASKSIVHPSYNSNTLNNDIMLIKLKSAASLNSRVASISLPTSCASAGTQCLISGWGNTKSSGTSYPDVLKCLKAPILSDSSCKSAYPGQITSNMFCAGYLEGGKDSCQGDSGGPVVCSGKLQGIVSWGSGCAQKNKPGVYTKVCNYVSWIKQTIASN
The description is as above. As to conditions: Table II Enzyme Selectivity. On the procedure:
as §2, §3

In the next assay the target is α-Chymotrypsin (Bos taurus, UniProt P00766). Described as above. As to conditions: Table II Enzyme Selectivity. On the procedure: as §2, §3
In another assay the target is T5, vertebrate collagenase (Homo sapiens, UniProt P03956).
T5 sequence (P03956 100-469): T1 sequence (P03956 100-469)
The experiment in a line: Inhibition of vertebrate collagenase (I50, median inhibitory concentration).

For “DNP-Pro-Leu-Gly-Ile-Ala-Gly-Arg-NH2 (Dnp-PLGIAGR-NH2; SMILES CC[C@H](C)[C@H](NC(=O)CNC(=O)[C@H](CC(C)C)NC(=O)[C@@H]1CCCN1c1ccc([N+](=O)[O-])cc1[N+](=O)[O-])C(=O)N[C@@H](C)C(=O)NCC(=O)N[C@@H](CCCNC(=N)N)C(N)=O) [commercially available synthetic collagenase substrate, Peninsula Laboratories; DNP=Dinitrophenyl]”, the “Relative Rate (of hydrolysis)” value with collagenase was found to be 25.

On to `CCOC(=O)CNC(=O)[C@H](Cc1ccccc1)NC(=O)[C@H](CC(C)C)SC(=O)CNC(=O)[C@H](C)NC(=O)[C@@H]1CCCN1C(C)=O` [Ac-Pro-Ala-Gly-S-Leu-Phe-Gly-OC2 H5], for which the “Relative Rate (of hydrolysis)” value in assay [1] came to 2800.

In the case of `CCOC(=O)CNC(=O)[C@H](CC(C)C)NC(=O)[C@H](CC(C)C)SC(=O)CNC(=O)[C@H](CC(C)C)NC(=O)[C@@H]1CCCN1C(C)=O` [Ac-Pro-Leu-Gly-S-Leu-Leu-Gly-OC2 H5], the “Relative Rate (of hydrolysis)” value in assay [1] was 8800. The “Relative Rate” value in assay [1] (Table II Enzyme Selectivity, Vertebrate Collagenase, same as in Example 14) is on record as 260; on Carboxypeptidase Y, 0.03; in the assay on Elastase, 12; in the assay with Kallikrein it was 4.3; on Trypsin it was 0.07; on α-Chymotrypsin, 2.0.

On to `CCOC(=O)CNC(=O)[C@H](CC(C)C)NC(=O)[C@@H](S)CC(C)C` [HS-Leu-Leu-Gly-OC2 H5], for which, at vertebrate collagenase, the IC50 came out at 1000 nM.

“DNP-Pro-Gln-Gly-Ile-Ala-Gly-Gln-D-Arg-OH (Dnp-PQGIAGQ[dR]-OH; SMILES CC[C@H](C)[C@H](NC(=O)CNC(=O)[C@H](CCC(N)=O)NC(=O)[C@@H]1CCCN1c1ccc([N+](=O)[O-])cc1[N+](=O)[O-])C(=O)N[C@@H](C)C(=O)NCC(=O)N[C@@H](CCC(N)=O)C(=O)N[C@H](CCCNC(=N)N)C(=O)O) [commercially available synthetic collagenase substrate, Peninsula Laboratories; DNP=Dinitrophenyl]”: the “Relative Rate (of hydrolysis)” value with collagenase worked out at 5.

`CCOC(=O)CNC(=O)[C@H](C)NC(=O)[C@H](CC(C)C)SC(=O)CNC(=O)[C@H](C)NC(=O)[C@@H]1CCCN1C(C)=O` [Ac-Pro-Ala-Gly-S-Leu-Ala-Gly-OC2 H5]: in assay [1], the “Relative Rate (of hydrolysis)” value turned out to be 950.

As for `CCOC(=O)CNC(=O)[C@H](CC(C)C)NC(=O)[C@H](CC(C)C)NC(=O)CNC(=O)[C@H](CC(C)C)NC(=O)[C@@H]1CCCN1C(C)=O` [Ac--Pro--Leu--Gly--Leu--Leu--Gly--OC2 H5] (Ac-PLGLLG-OEt), the “Relative Rate (of hydrolysis)” value at collagenase worked out at 250.

As for `CCOC(=O)CNC(=O)[C@H](C)NC(=O)[C@H](CC(C)C)NC(=O)CNC(=O)[C@H](CC(C)C)NC(=O)[C@@H]1CCCN1C(C)=O` [Ac--Pro--Leu--Gly--Leu--Ala--Gly--OC2 H5] (Ac-PLGLAG-OEt), the “Relative Rate (of hydrolysis)” value on collagenase worked out at 110.

`CCOC(=O)CNC(=O)[C@H](Cc1ccccc1)NC(=O)[C@H](CC(C)C)SC(=O)CNC(=O)[C@H](CC(C)C)NC(=O)[C@@H]1CCCN1C(C)=O` [Ac-Pro-Leu-Gly-S-Leu-Phe-Gly-OC2 H5]: the “Relative Rate (of hydrolysis)” value in assay [1] is reported as 5900.
